Molecules are shown by their SMILES. pIC50: −log10 of the molar value. Like-named read-outs stand apart in the source and are kept apart here.

8 molecules from patent US9187470B2, “Anti-mucus drugs and uses therefor” (Washington University, priority 2012, dated 2015) can be followed below.

Series [1] addresses T1, MAPK13 (Homo sapiens (Human), UniProt O15264). As to the kind of experiment: MAPK13/small molecule binding assay (bio-layer interferometry, Octet). Conditions: for slow-off binding kinetics: FIG. 6d,e; for t1/2: complex half-life determined using BLI. The text has this: MAPK purification for biochemical assays and crystallization. Full-length human MAPK13 (1-365) and MAPK13 crystallization construct (1-352) were cloned into pET28a as N-terminal 6-His-tagged constructs. A constitutively active mutant MKK6-GST fusion construct (GST-MKK6 Glu) was a gift from Peiqing Sun (Scripps, La Jolla, Calif.). A pET28a construct of λ-phosphatase was a gift from Dima Klenchin (University of Wisconsin, Madison, Wis.). All constructs were confirmed by sequencing and transformed into Rosetta2 (DE3) E. coli (EMD Millipore, Billerica, Mass.) and expressed as soluble proteins that were purified using the specific affinity tags followed by gel filtration chromatography. […] All buffers used during purification (lysis, column, and storage) of MAPK13 required addition of 10% glycerol and 1-5 mM reducing agent (either β-mercaptoethanol or DTT) to prevent precipitation of the recombinant protein. The final purified MAPK13 for crystallization was stored in buffer containing 20 mM Hepes pH 7.5, 150 mM NaCl, 10% glycerol, and 1 mM DTT.
MAPK13/small molecule binding assay. Kinetics of MAPK13 binding to small molecules was assessed using bio-layer interferometry with an Octet (ForteBio, Menlo Park, Calif.). Super-streptavidin-coated biosensors from ForteBio were used to capture biotinylated MAPK13 onto the surface of the sensor. After reaching baseline, sensors were moved to association step containing 2500, 1250, 625, 312.5, or 156.3 nM inhibitor for 300 s and then dissociated for 300 s. Curves were corrected by a double-referencing technique using both biotin-coated pins dipped into the experimental wells and a buffer-only reference. The running buffer consisted of 10 mM Hepes pH 7.5, 150 mM NaCl, 0.05% Tween, and 5% DMSO. Half-lives were calculated from dissociation constants determined from global kinetic analysis.
On the technique in general: BLI is a label-free optical method that tracks binding on a fibre tip over time.

Series [2] deals with T1, MAPK13. Description: MAPK inhibitor assay: immobilized metal affinity polarization (IMAP) assay with activated MAPK13. It counts as biochemical. Conditions: for MAPK13 inhibitory activity (in words): IMAP assay, FIG. 6f. On the procedure: MAPK inhibitor assay. The MAPK13 blocking activity of test compounds was determined using an immobilized metal affinity polarization (IMAP) assay containing activated MAPK13, FITC-labeled substrate, and test compound. Full-length 6-His-tagged MAPK13 and constitutively active GST-MKK6 were prepared as described below. Activated MAPK13 was generated in 50 mM Hepes, 10 mM MgCl2 and 1 mM DTT, containing 1 μM MAPK13, 2 μM MKK6 and 50 μM ATP for 1 h at 25° C. MKK6 was removed by incubation with glutathione SEPHAROSE 4B beads (GE Healthcare Biosciences). […] IMAP assays were performed in 96-well non-treated half-area black plates or 384-well black plates (Corning Inc., Corning, N.Y.) in a final reaction volume of 20 μl using the linear phase of the rate kinetics. […] The reaction proceeded for 20 min at 25° C. in 10 mM Tris-HCl, 10 mM MgCl2, 0.1% BSA, 0.05% NaN3, 1 mM DT, pH 7.2 after which 60 μl of tri-valent metal nanoparticles containing IMAP binding reagent (Molecular Devices, Sunnyvale, Calif.) was added for 80 min at 25° C. The IMAP binding reagent was optimized at 1:600 (vol/vol) based on the number of acidic residues in the peptide substrate. Fluorescence polarization was measured with a Biotek Synergy 4 multimode plate reader (Biotek, Winooski, Vt.) with excitation at 485 nm and emission at 528 nm. The IC50 values for each compound were determined from the compound concentration versus fluorescence polarization (mP) plot using nonlinear curve fitting with GraphPad Prism software (Graphpad Software, La Jolla, Calif.).
MAPK purification for biochemical assays and crystallization. Full-length human MAPK13 (1-365) and MAPK13 crystallization construct (1-352) were cloned into pET28a as N-terminal 6-His-tagged constructs. […] A pET28a construct of λ-phosphatase was a gift from Dima Klenchin (University of Wisconsin, Madison, Wis.). All constructs were confirmed by sequencing and transformed into Rosetta2 (DE3) E. coli (EMD Millipore, Billerica, Mass.) and expressed as soluble proteins that were purified using the specific affinity tags followed by gel filtration chromatography. […] The final purified MAPK13 for crystallization was stored in buffer containing 20 mM Hepes pH 7.5, 150 mM NaCl, 10% glycerol, and 1 mM DTT.
In concert with this structural analysis, analogs for MAPK13 inhibitory activity were tested using an immobilized metal affinity polarization (IMAP) assay that detected fluorescence polarization as a function of remaining MAPK13 activity.

For series [3], the system named is MUC5AC. As to the kind of experiment: IL-13-induced MUC5AC production in primary-culture human tracheal epithelial cells (qPCR, cell-based ELISA). Conditions: for IL-13-induced MUC5AC production: FIG. 6h. (Quantitative PCR measures a nucleic acid by following its amplification.)
Series [4] has as its system MUC5AC. Description: Doxycycline-induced MUC5AC mRNA and protein in NCI-H292-rtTA-hCLCA1 cells. It counts as cell-based, human. Conditions: doxycycline 7.5 μg/ml for 18 h.
In a further series the test system is CLCA1. Description: CLCA1 levels in IL-13-treated hTECs (qPCR). In kind it is cell-based, human. Conditions: IL-13 50 ng/ml, up to 21 d air-liquid interface.
Where [5] appears, read: lower part of Table 4, IMAP-based biochemical assay, read-out: MAPK13 IC50.
Setting [6] is: upper part of Table 4, 16-point inhibitor concentration-response curves, unit inferred, read-out: IC50 (IC50 values for MAPK13 inhibition).
[7] abbreviates: primary-culture human airway epithelial cells.

T1 sequence (O15264 whole entry, the tested form may be a part): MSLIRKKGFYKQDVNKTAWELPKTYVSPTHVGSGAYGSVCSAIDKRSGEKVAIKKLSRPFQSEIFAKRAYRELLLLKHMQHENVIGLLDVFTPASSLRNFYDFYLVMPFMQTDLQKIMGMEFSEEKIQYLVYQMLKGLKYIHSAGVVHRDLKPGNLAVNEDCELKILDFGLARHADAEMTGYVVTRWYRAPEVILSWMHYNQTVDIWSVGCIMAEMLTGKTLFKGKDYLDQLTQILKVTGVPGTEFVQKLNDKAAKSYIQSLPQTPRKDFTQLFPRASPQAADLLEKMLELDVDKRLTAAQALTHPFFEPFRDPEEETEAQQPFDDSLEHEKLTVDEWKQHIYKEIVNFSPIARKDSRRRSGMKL

By pIC50 is commonly meant the negative decadic logarithm of the IC50, by convention in mol/L. As to `Cc1cn(-c2cccc(C(=O)Nc3ccc(Oc4ccncc4)cc3)c2)cn1` [Analog 117, 3-(4-methylimidazol-1-yl)-N-[4-(4-pyridyloxy)phenyl]benzamide], at MAPK13 [1], the slow-off binding kinetics result was “did not” and the t1/2 was 0.0467 min. Moreover, the “MAPK13 Inhibition Biochemical Potency” value at MAPK13 [2] (class symbols +++, ++, +, ~, legend not given) is on record as “~”. At MAPK13 [2] (setting [5]), the pIC50 is 4.99. In addition, the pIC50 on MAPK13 [2] (setting [6]) is 4.80.

As to `Cn1c(NC[C@@H](N)Cc2ccccc2)nc(-c2ccncc2)c(-c2ccc3ccccc3c2)c1=O` [AMG-548, reference compound], on MAPK13 [2], the “MAPK13 inhibitory activity (in words)” value is “weak inhibitory activity”.

On MAPK13 [1], `O=C(Nc1ccc(Oc2ccncc2)cc1)c1ccnc(N2CCOCC2)c1` [Analog 124, 2-morpholino-N-[4-(4-pyridyloxy)phenyl]pyridine-4-carboxamide] had a t1/2 of 0.02 min.

Take `Cn1nc(C(C)(C)C)cc1NC(=O)Nc1ccc(Oc2ccncc2)cc1` [Compound 61]: the “increase in complex half-life” value at MAPK13 [1] (DFG-out compound 61 compared with DFG-in compound 117 (FIG. 6E)) worked out at 40 fold. For the same molecule, at MAPK13 [1], the slow-off binding kinetics entry was “exhibited slow-off binding kinetics” and the t1/2 amounted to 1.85 min. Also, in the series on MUC5AC [3] (setting [7]), the “IL-13-induced MUC5AC production” value is reported as “markedly suppressed”. Moreover, the “MAPK13 inhibitory activity (in words)” value on MAPK13 [2] was “most potent MAPK13 inhibition”. Besides, the pIC50 at MAPK13 [2] (setting [5]) is 7.08. In addition, at MAPK13 [2] (setting [6]), the pIC50 is 6.21.

As to `Cc1ccc(-n2nc(C(C)(C)C)cc2NC(=O)Nc2ccc(OCCN3CCOCC3)c3ccccc23)cc1` [BIRB-796, BIRB-796 (Doramapimod)], the “doxycyline-induced MUC5AC mRNA and protein production” value with MUC5AC [4] was “inhibited”. Further, the “IL-13-induced MUC5AC gene expression” value in the series on MUC5AC [3] (hTECs, IL-13 50 ng/ml, up to 21 d air-liquid interface) is reported as “markedly suppressed”. Besides, the “corresponding CLCA1 levels / CLCA1 gene expression” value in the series with CLCA1 is “without affecting”.

Regarding `Cc1ccc(-n2nc(C(C)(C)C)cc2NC(=O)Nc2ccc3c(c2)CN(C(=O)C2CCOCC2)C3)cc1` [Analog 115, 1-[5-tert-butyl-2-(p-tolyl)pyrazol-3-yl]-3-[2-(tetrahydropyran-4-carbonyl)isoindolin-5-yl]urea], at MAPK13 [1] (BLI), the “Relative Dissociation kinetics” value is recorded as “slow”. At MAPK13 [1], this molecule yielded a t1/2 of 3.4 min. Also, on MAPK13 [2] (setting [5]), the pIC50 is 5.06.

As to `Cc1ccc(-n2nc(C(C)(C)C)cc2NC(=O)Nc2ncc(CCN3CCOCC3)s2)cc1` [Analog 89, 1-[5-tert-butyl-2-(p-tolyl)pyrazol-3-yl]-3-[5-(2-morpholinoethyl)thiazol-2-yl]urea], the t1/2 on MAPK13 [1] was determined as 20 min. Also, the pIC50 on MAPK13 [2] (setting [5]) was 7.56.

On to `Cc1ccc(-n2nc(C(C)(C)C)cc2NC(=O)Nc2ccc(Oc3ccncc3)cc2)cc1` [Compound 62], for which the pIC50 is over 8.00 in the series on MUC5AC [3] (IL-13-induced, primary-culture human airway epithelial cells, read-out: IC50 for blockade of mucus production) and 6.55 at MAPK13 [2] (setting [6]). Also, the “IL-13-induced MUC5AC production” value in the series with MUC5AC [3] (setting [7]) is reported as “markedly suppressed”. Also, on MAPK13 [2], the “MAPK13 inhibitory activity (in words)” value was “most potent MAPK13 inhibition”.
